Assay results from patent US10087188B2, “Benzamide imidazopyrazine Btk inhibitors” (MERCK SHARP & DOHME CORP., priority 2014, dated 2018).

system: HeLa cells; assay: [3H] Adenosine uptake assay; assay type: cell-based; settings: Homo sapiens, HeLa, accumulation of tritiated adenosine into HeLa cells; compound concentration range 10 μM to 0.032 nM; read-out: ADU inhibition IC50 (adenosine uptake inhibition potency)
Procedure: Compounds are also screen in an adenosine uptake functional cellular assay using the protocol described below:
[^3H] Adenosine Uptake Assay Methods
Adenosine uptake activity was determined by monitoring the accumulation of tritiated adenosine into HeLa cells (ATCC catalog #CCL-2) using a PMT-based radiometric detection instrument. […] These cells were incubated overnight at 37° C. in a humidified atmosphere with 5% (v/v) CO2. After this time the growth medium was removed and replaced with 40 μL assay medium comprising: Hanks balanced salts solution (HBSS; Thermo Fisher Catalog #SH30268.01)+5% (v/v) FBS. Compound stock solutions in DMSO were diluted in assay medium to 2.5× final compound concentration maintaining a constant DMSO concentration of 0.25% (v/v). 40 μL of compound in assay medium was dispensed into individual wells of the Cytostar-T plates and the plates were incubated for 30 minutes under ambient laboratory conditions. Following this incubation, 20 μL of 500 nM[^3H] adenosine (American Radiolabeled Chemicals Inc. Catalog #ART0287) in assay medium was added and incubated for a further 60 minutes under ambient laboratory conditions. The amount of radiolabel accumulation was then determined using a Perkin Elmer Topcount NXT microplate reader. In brief, HeLa cells adhere to the bottom of the Cytostar-T plate, uptake of [^3H]adenosine into these cells brings the radiolabel into sufficient proximity to excite the scintillant in the base of the plates. These events are captured by single PMT, time-resolved coincidence counting. IC50 values were determined by 4 parameter robust fit of counts per second values vs. (Log10) compound concentrations.

Compound | IC50
Nc1nccn2c([C@@H]3CC[C@@H](CC(=O)O)C3)nc(-c3ccc(C(=O)Nc4cc(C(F)(F)F)ccn4)cc3)c12 [Example 55, {(1R,3R)-3-[8-amino-1-(4-{[4-(trifluoromethyl)pyridin-2-yl]carbamoyl}phenyl)imidazo[1,5-a]pyrazin-3-yl]cyclopentyl}acetic acid] | 7.98 µM

same assay, conditions: Homo sapiens; accumulation of tritiated adenosine into HeLa cells; compound concentration range 10 μM to 0.032 nM; read-out: ADU inhibition IC50 (adenosine uptake inhibition potency)

Compound | IC50
Nc1nccn2c([C@H]3CC[C@@H](C(=O)O)C3)nc(-c3ccc(C(=O)Nc4cc(C(F)(F)F)ccn4)cc3)c12 [Example 14, (1R,3S)-3-(8-amino-1-(4-((4-(trifluoromethyl)pyridin-2-yl)carbamoyl)phenyl)imidazo[1,5-a]pyrazin-3-yl)cyclopentanecarboxylic acid] | 2.5 µM
CC(C)[C@]1(C(=O)O)CC[C@@H](c2nc(-c3ccc(C(=O)Nc4cc(C(F)(F)F)ccn4)cc3)c3c(N)nccn23)C1 [Example 46, (1S,3R)-3-[8-amino-1-(4-{[4-(trifluoromethyl)pyridin-2-yl]carbamoyl}phenyl)imidazo[1,5-a]pyrazin-3-yl]-1-(1-methylethyl) cyclopentane carboxylic acid] | 4 µM
Nc1nccn2c([C@@H]3C[C@@H]4[C@H](C3)[C@@H]4C(=O)O)nc(-c3ccc(C(=O)Nc4cc(C(F)(F)F)ccn4)cc3)c12 [Example 124, (1R,3r,5S,6s)-3-[8-amino-1-(4-{[4-(trifluoromethyl)pyridin-2-yl]carbamoyl}phenyl)imidazo[1,5-a]pyrazin-3-yl]bicyclo[3.1.0] hexane-6-carboxylic acid] | 6.12 µM
CC(C)[C@@]1(C(=O)O)CC[C@H](c2nc(-c3ccc(C(=O)Nc4cc(C(F)(F)F)ccn4)cc3)c3c(N)nccn23)C1 [Example 48, (1R,3S)-3-[8-amino-1-(4-{[4-(trifluoromethyl)pyridin-2-yl]carbamoyl}phenyl)imidazo[1,5-a]pyrazin-3-yl]-1-(1-methylethyl) cyclopentane-carboxylic acid] | 3.76 µM
CC(C)[C@]1(C(=O)O)CC[C@H](c2nc(-c3ccc(C(=O)Nc4cc(C(F)(F)F)ccn4)cc3)c3c(N)nccn23)C1 [Example 49, (1S,3S)-3-[8-amino-1-(4-{[4-(trifluoromethyl)pyridin-2-yl]carbamoyl}phenyl)imidazo[1,5-a]pyrazin-3-yl]-1-(1-methylethyl) cyclopentane-carboxylic acid] | 0.922 µM
Nc1nccn2c1c(-c1ccc(C(=O)Nc3cc(C(F)(F)F)ccn3)cc1)nc2[C@H]1CC[C@@H](C(=O)O)CC1 [Example 158, cis-4-[8-amino-1-(4-{[4-(trifluoromethyl)pyridin-2-yl]carbamoyl}phenyl)imidazo[1,5-a]pyrazin-3-yl]cyclohexane-carboxylic acid] | 10 µM
Nc1nccn2c([C@@H]3C[C@@H]4[C@H](C3)[C@H]4C(=O)O)nc(-c3ccc(C(=O)Nc4cc(C(F)(F)F)ccn4)cc3)c12 [Example 125, (1R,3R,5S,6r)-3-[8-amino-1-(4-{[4-(trifluoromethyl)pyridin-2-yl]carbamoyl}phenyl)imidazo[1,5-a]pyrazin-3-yl]bicyclo[3.1.0]hexane-6-carboxylic acid] | 2.69 µM
C[C@]1(C(=O)O)CC[C@@H](c2nc(-c3ccc(C(=O)Nc4cc(C(F)(F)F)ccn4)cc3)c3c(N)nccn23)C1 [Example 37, (1S,3R)-3-[8-amino-1-(4-{[4-(trifluoromethyl)pyridin-2-yl]carbamoyl}phenyl)imidazo[1,5-a]pyrazin-3-yl]-1-methylcyclopentane-carboxylic acid] | 8.55 µM
C[C@@]1(C(=O)O)CC[C@H](c2nc(-c3ccc(C(=O)Nc4cc(C(F)(F)F)ccn4)cc3)c3c(N)nccn23)C1 [Example 40, (1R,3S)-3-[8-amino-1-(4-{[4-(trifluoromethyl)pyridin-2-yl]carbamoyl}phenyl)imidazo[1,5-a]pyrazin-3-yl]-1-methylcyclopentane-carboxylic acid] | 5.28 µM
CC(C)[C@H]1CC[C@@H](c2nc(-c3ccc(C(=O)Nc4cc(C(F)(F)F)ccn4)cc3)c3c(N)nccn23)C[C@H]1C(=O)O [Example 99, (1R,2R,5R)-5-[8-amino-1-(4-{[4-(trifluoromethyl)pyridin-2-yl]carbamoyl}phenyl)imidazo[1,5-a]pyrazin-3-yl]-2-(1-methylethyl) cyclohexane-carboxylic acid] | 2.51 µM
C[C@]1(C(=O)O)CCC[C@@H](c2nc(-c3ccc(C(=O)Nc4cc(C(F)(F)F)ccn4)cc3)c3c(N)nccn23)C1 [Example 154, (1S,3R)-3-[8-amino-1-(4-{[4-(trifluoromethyl)pyridin-2-yl]carbamoyl}phenyl)imidazo[1,5-a]pyrazin-3-yl]-1-methylcyclohexane-carboxylic acid] | 10 µM
CC(C)[C@]1(C(=O)O)CCC[C@@H](c2nc(-c3ccc(C(=O)Nc4cc(C(F)(F)F)ccn4)cc3)c3c(N)nccn23)C1 [Example 89, (1S,3R)-3-[8-amino-1-(4-{[4-(trifluoromethyl)pyridin-2-yl]carbamoyl}phenyl)imidazo[1,5-a]pyrazin-3-yl]-1-(1-methylethyl) cyclohexane-carboxylic acid] | 3.41 µM
Nc1nccn2c([C@H]3C[C@@H]4[C@H](C3)[C@H]4C(=O)O)nc(-c3ccc(C(=O)Nc4cc(C(F)(F)F)ccn4)cc3)c12 [Example 139, (1R,3R,5S,6r)-3-[8-amino-1-(4-{[4-(trifluoromethyl)pyridin-2-yl]carbamoyl}phenyl)imidazo[1,5-a]pyrazin-3-yl]bicyclo[3.1.0] hexane-6-carboxylic acid] | 10 µM
Nc1nccn2c([C@H]3C[C@@H]4[C@H](C3)[C@@H]4C(=O)O)nc(-c3ccc(C(=O)Nc4cc(C(F)(F)F)ccn4)cc3)c12 [Example 140, (1R,3r,5S,6s)-3-[8-amino-1-(4-{[4-(trifluoromethyl)pyridin-2-yl]carbamoyl}phenyl)imidazo[1,5-a]pyrazin-3-yl]bicyclo[3.1.0] hexane-6-carboxylic acid] | 10 µM

target: BTK enzyme (recombinant full-length BTK, hBTK) (Homo sapiens (Human), UniProt Q06187); assay: Btk enzyme activity assay, LANCE TR-FRET; assay type: biochemical; settings: 50 pM hBTK, 2 μM biotin-A5-peptide, 25 μM ATP; 60 minute compound & enzyme incubation; read-out: BTK binding IC50
Sequence (Q06187 whole entry): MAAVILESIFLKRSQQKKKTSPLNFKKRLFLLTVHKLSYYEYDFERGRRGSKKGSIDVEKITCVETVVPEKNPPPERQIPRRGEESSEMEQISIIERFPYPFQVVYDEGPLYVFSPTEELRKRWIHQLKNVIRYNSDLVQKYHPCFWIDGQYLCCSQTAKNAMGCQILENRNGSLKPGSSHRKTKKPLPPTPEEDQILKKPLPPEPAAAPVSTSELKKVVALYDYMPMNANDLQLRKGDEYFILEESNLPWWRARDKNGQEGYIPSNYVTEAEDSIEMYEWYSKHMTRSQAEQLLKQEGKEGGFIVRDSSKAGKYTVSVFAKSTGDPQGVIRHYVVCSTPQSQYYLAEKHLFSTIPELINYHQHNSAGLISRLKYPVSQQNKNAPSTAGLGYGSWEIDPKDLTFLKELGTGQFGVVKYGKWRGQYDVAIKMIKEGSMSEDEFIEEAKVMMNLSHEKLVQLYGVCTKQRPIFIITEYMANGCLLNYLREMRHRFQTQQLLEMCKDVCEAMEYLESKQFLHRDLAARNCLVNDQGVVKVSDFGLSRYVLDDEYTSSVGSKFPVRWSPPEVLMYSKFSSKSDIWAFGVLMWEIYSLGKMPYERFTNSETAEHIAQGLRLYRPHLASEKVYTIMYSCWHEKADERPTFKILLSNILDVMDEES
Procedure: Btk Enzyme Activity Assay Methods
BTK enzymatic activity was determined with the LANCE (Lanthanide Chelate Excite) TR-FRET (Time-resolved fluorescence resonance energy transfer) assay. […] After 60 minutes incubation with detection reagents, reaction plates were read on a PerkinElmer EnVision plate reader using standard TR-FRET protocol.

Compound | IC50
C[C@]1(C(=O)O)CCC[C@@H](c2nc(-c3ccc(C(=O)Nc4cc(C5CC5)ccn4)cc3F)c3c(N)nccn23)C1 [Example 156, (1S,3R)-3-(8-amino-1-{4-[(4-cyclopropylpyridin-2-yl)carbamoyl]-2-fluorophenyl}imidazo [1,5-a]pyrazin-3-yl)-1-methylcyclohexane-carboxylic acid] | 0.0017 µM
COc1cc(C(=O)Nc2cc(C(F)(F)F)ccn2)ccc1-c1nc([C@H]2CCC[C@@H](C(=O)O)C2)n2ccnc(N)c12 [Example 5, (1R,3S)-3-[8-amino-1-(2-methoxy-4-{[4-(trifluoromethyl)pyridin-2-yl]carbamoyl}phenyl)imidazo [1,5-a]pyrazin-3-yl]cyclohexane-carboxylic acid] | 0.0409 µM
Nc1nccn2c([C@@H]3CCC[C@H](C(=O)O)C3)nc(-c3ccc(C(=O)Nc4cc(OC5CC5)ccn4)cc3)c12 [Example 12, (1S,3R)-3-[8-amino-1-(4-{[4-(cyclopropyloxy)pyridin-2-yl]carbamoyl}phenyl)imidazo [1,5-a]pyrazin-3-yl]cyclohexane-carboxylic acid] | 0.0017 µM
Nc1nccn2c([C@H]3CCN[C@@H](C(=O)O)C3)nc(-c3ccc(C(=O)Nc4cc(C(F)(F)F)ccn4)cc3)c12 [Example 31, (2R,4S)-4-[8-amino-1-(4-{[4-(trifluoromethyl)pyridin-2-yl]carbamoyl}phenyl)imidazo[1,5-a]pyrazin-3-yl]piperidine-2-carboxylic acid] | 0.0026 µM
